Laboratory results as given in US20260250318A1, “COMPOSITIONS AND METHODS FOR CROSSING THE BLOOD BRAIN BARRIER” (VOYAGER THERAPEUTICS, INC., priority 2022, published 2026).

Assays:
[1] = system: brains, heart, liver, muscle, and DRG of the NHPs; assay: Maturation of TTM-001 and TTM-002 capsids, NGS enrichment in NHP tissues; format: in vivo; settings: relative to AAV9 control
How it was run: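 Variants carry mutations within and flanking the loop IV peptide insert: positions 450–466 were triplet-randomized, while positions 449–466 received low-frequency point mutations. The combined pool went into two NHPs, and each peptide was scored by NGS enrichment ratio against AAV9.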

brain = assay: Matured TTM-001 and TTM-002 variants, NGS enrichment in mouse brain; format: in vivo, mice; settings: relative to AAV9 control
[2] = NGS fold-enrichment of RNA, NHP brain
[3] = NGS fold-enrichment, DRG of NHPs
[4] = NGS fold-enrichment, NHP liver DNA
[5] = NGS fold-enrichment, NHP liver RNA
[6] = NGS fold-enrichment, NHP muscle
[7] = NGS fold-enrichment, RNA, brain of NHPs
[8] = NGS fold-enrichment, heart of NHPs
[9] = NGS fold-enrichment, liver DNA of NHPs
[10] = NGS fold-enrichment, liver RNA of NHPs
[11] = NGS fold-enrichment, muscle of NHPs
[12] = NGS fold-enrichment, brain of mice
[13] = NGS fold-enrichment, mouse brain
[14] = NGS fold-enrichment of matured AAV capsid variants, NHP brain, RNA

Row | Sequence | Fold Enrichment relative to AAV9, DRG (NHP) [1, 3] | Fold Enrichment relative to AAV9, Brain (NHP) [1, 7] | Fold Enrichment relative to AAV9, Heart (NHP) [1, 8] | Fold Enrichment relative to AAV9, Liver DNA (NHP) [1, 9] | Fold Enrichment relative to AAV9, Liver RNA (NHP) [1, 10] | Fold Enrichment relative to AAV9, Muscle (NHP) [1, 11] | Fold Enrichment relative to AAV9, Brain (Mouse) (brain; [12]) | Fold Enrichment relative to AAV9, Brain (NHP) [1, 14] | Fold Enrichment relative to AAV9, DRG (NHP) ([1]; NHP DRG) | Fold Enrichment relative to AAV9, Heart (NHP) ([1]; NHP heart) | Fold Enrichment relative to AAV9, Liver DNA (NHP) ([1]; NHP liver, DNA) | Fold Enrichment relative to AAV9, Liver RNA (NHP) ([1]; NHP liver, RNA) | Fold Enrichment relative to AAV9, Muscle (NHP) ([1]; NHP muscle) | Fold Enrichment relative to AAV9, Brain (Mouse) (brain; mouse brain) | other results
1 | KTINGSGSPHSKALHQHT | 0.000 fold | 77.502 fold | 0.052 fold | 0.188 fold | 0.000 fold | 0.041 fold | 68.196 fold | – | – | – | – | – | – | – | Fold Enrichment relative to AAV9, Brain (NHP) [1, 2]: 77.502 fold; Fold Enrichment relative to AAV9, DRG (NHP) ([1]; NGS fold-enrichment, NHP DRG): 0.000 fold; Fold Enrichment relative to AAV9, Heart (NHP) ([1]; NGS fold-enrichment, NHP heart): 0.052 fold; Fold Enrichment relative to AAV9, Liver DNA (NHP) [1, 4]: 0.188 fold; Fold Enrichment relative to AAV9, Liver RNA (NHP) [1, 5]: 0.000 fold; Fold Enrichment relative to AAV9, Muscle (NHP) [1, 6]: 0.041 fold; Fold Enrichment relative to AAV9, Brain (Mouse) (brain; [13]): 68.196 fold
2 | KTINGSGSPHSKALMRQT | – | – | – | – | – | – | – | 57.234 fold | 0.060 fold | 0.036 fold | 0.517 fold | 1.798 fold | 0.100 fold | 81.332 fold | –
3 | KTINGSGSPHSKALNRQS | 0.136 fold | 96.843 fold | 0.532 fold | 0.178 fold | 0.042 fold | 0.000 fold | 55.945 fold | – | – | – | – | – | – | – | Fold Enrichment relative to AAV9, Brain (NHP) [1, 2]: 96.843 fold; Fold Enrichment relative to AAV9, DRG (NHP) ([1]; NGS fold-enrichment, NHP DRG): 0.136 fold; Fold Enrichment relative to AAV9, Heart (NHP) ([1]; NGS fold-enrichment, NHP heart): 0.532 fold; Fold Enrichment relative to AAV9, Liver DNA (NHP) [1, 4]: 0.178 fold; Fold Enrichment relative to AAV9, Liver RNA (NHP) [1, 5]: 0.042 fold; Fold Enrichment relative to AAV9, Muscle (NHP) [1, 6]: 0.000 fold; Fold Enrichment relative to AAV9, Brain (Mouse) (brain; [13]): 55.945 fold
4 | KTINGSGSPHSKAPGLQT | 0.007 fold | 62.043 fold | 0.000 fold | 0.210 fold | 0.651 fold | 0.005 fold | 144.610 fold | – | – | – | – | – | – | – | –
5 | KTINGSGSPHSKAPGQQT | – | – | – | – | – | – | – | 54.071 fold | 0.065 fold | 0.000 fold | 0.179 fold | 0.542 fold | 0.004 fold | 73.440 fold | –
6 | KTINGSGSPHSKAPNLQI | – | – | – | – | – | – | – | 58.022 fold | 0.000 fold | 0.044 fold | 0.243 fold | 1.548 fold | 0.000 fold | 55.714 fold | –
7 | KTINGSGSPHSKAPSLQT | – | – | – | – | – | – | – | 52.137 fold | 0.041 fold | 1.614 fold | 0.222 fold | 0.902 fold | 0.002 fold | 70.363 fold | –
8 | KTINGSGSPHSKAPSMQT | – | – | – | – | – | – | – | 50.249 fold | 0.000 fold | 0.000 fold | 0.460 fold | 0.941 fold | 0.004 fold | 75.504 fold | –
9 | KTINGSGSPHSKAPSNQT | – | – | – | – | – | – | – | 52.680 fold | 1.494 fold | 4.762 fold | 0.208 fold | 0.330 fold | 0.003 fold | 87.951 fold | –
10 | KTINGSGSPHSKAQAFHT | 0.033 fold | 70.159 fold | 0.000 fold | 0.119 fold | 0.762 fold | 0.058 fold | 86.268 fold | – | – | – | – | – | – | – | –
11 | KTINGSGSPHSKAQAIHT | – | – | – | – | – | – | – | 56.047 fold | 0.000 fold | 0.000 fold | 0.890 fold | 0.887 fold | 212.32 fold | 81.908 fold | –
12 | KTINGSGSPHSKAQAIKT | 0.255 fold | 74.261 fold | 0.000 fold | 0.132 fold | 0.186 fold | 0.000 fold | 73.560 fold | – | – | – | – | – | – | – | –
13 | KTINGSGSPHSKAQAITT | – | – | – | – | – | – | – | 56.924 fold | 0.000 fold | 0.000 fold | 0.438 fold | 1.239 fold | 0.000 fold | 75.250 fold | –
14 | KTINGSGSPHSKAQAKGT | – | – | – | – | – | – | – | 51.727 fold | 0.048 fold | 0.016 fold | 0.525 fold | 0.271 fold | 0.000 fold | 104.917 fold | –
15 | KTINGSGSPHSKAQAKLT | 0.000 fold | 71.154 fold | 0.273 fold | 0.777 fold | 1.591 fold | 0.017 fold | 130.132 fold | – | – | – | – | – | – | – | –
16 | KTINGSGSPHSKAQAMHT | 0.000 fold | 62.756 fold | 0.000 fold | 0.393 fold | 0.976 fold | 0.010 fold | 84.056 fold | – | – | – | – | – | – | – | –
17 | KTINGSGSPHSKAQAPAT | 0.000 fold | 61.934 fold | 0.169 fold | 0.197 fold | 0.696 fold | 0.015 fold | 127.420 fold | – | – | – | – | – | – | – | –
18 | KTINGSGSPHSKAQAPST | 0.200 fold | 60.696 fold | 0.005 fold | 0.263 fold | 0.751 fold | 0.000 fold | 115.528 fold | – | – | – | – | – | – | – | –
19 | KTINGSGSPHSKAQDRPT | 0.132 fold | 70.831 fold | 0.006 fold | 0.379 fold | 0.039 fold | 0.000 fold | 66.800 fold | – | – | – | – | – | – | – | –
20 | KTINGSGSPHSKAQDRQS | – | – | – | – | – | – | – | 55.137 fold | 1.146 fold | 0.016 fold | 0.086 fold | 0.644 fold | 0.106 fold | 55.701 fold | –
21 | KTINGSGSPHSKAQERPT | 0.000 fold | 63.460 fold | 0.011 fold | 0.173 fold | 0.810 fold | 0.000 fold | 57.506 fold | – | – | – | – | – | – | – | –
22 | KTINGSGSPHSKAQERST | – | – | – | – | – | – | – | 58.021 fold | 0.000 fold | 0.011 fold | 0.409 fold | 0.829 fold | 0.005 fold | 87.656 fold | –
